Laboratory results reported in patent publication US20050203191A1, “1-Aminocyclohexane derivatives for the treatment of agitation and other behavioral disorders, especially those associated with alzheimer's disease” (priority 2004, published 2005).

Key:
[1] = system: patients with mild to moderate dementia of the Alzheimer's type; assay: MD-10: randomized, double-blind, placebo-controlled evaluation of memantine; type: in vivo, human; conditions: MD-10, week 24, ITT LOCF
Protocol: MD-10: MD-10 was a randomized, double-blind, placebo-controlled evaluation of the safety and efficacy of memantine in patients with mild to moderate dementia of the Alzheimer's type. The primary endpoints for MD-10 were ADAS-cog and CIBIC-plus. Other endpoints for MD-10 included ADCS-ADL, NPI, and RUD (Resource Utilization in Dementia).
(§1) The five memantine trials were evaluated using an analysis of patient for a population having an NPI agitation subscale score of >4 ([…]) and for a population having an NPI score of <4 ([…]). For each NPI population, changes in SIB, ADAS-cog and/or ADL were calculated using the least square (LS) mean difference for memantine and placebo-treated patients. Similarly, for each NPI population, the raw mean difference between memantine and placebo was calculated for the CIBIC-plus results.
(§2) For primary efficacy measurements the comparison between memantine and placebo was performed using two-way analysis of covariance (ANCOVA) with treatment group and center as the two factors, and the baseline scores as covariate. Both the LOCF imputation approach and the OC approach are performed at the end of the trials.
(§3) For secondary efficacy measurements, the comparison between memantine and placebo was performed using two-way analysis of covariance (ANCOVA) with treatment group and center as the two main effects, and the baseline scores as covariate. Descriptive statistics were calculated by Visit. Again, all analyses were performed using both the LOCF imputation approach and the OC approach.
(§4) Results of ANCOVA were summarized using least square (LS) means for each treatment group with corresponding standard error (SE), the between-treatment (2-24 week) difference in the least square means with corresponding 95% confidence interval, and the between-treatment p-value corresponds to the SAS Type III sum of squares.
(§5) In data Tables 5-19, the Overall Memantine versus Placebo columns of studies MD-01, MD-02, MD-10 and MD-12 used an ANCOVA model with baseline total score as covariate, treatment and study center as factors for SIB, ADL or ADAS-cog; CMH test controlling for study center for CIBIC-Plus. For MZ-9605, results are based on arithmetic means and the Wilcoxon-Mann-Whitney test. The Agitation score columns/NPI/antipsychotics columns, except CIBIS-Plus, calculated the p-values and LS mean differences within the subgroups from an ANCOVA model with baseline total score as covariate, subgroup (yes/no), treatment, and treatment by subgroup interactions as factors. For CIBIS-Plus, the p-values and raw mean differences within a subgroup were calculated using the CMH test controlling for study center.
(§6) Patients in the same five trials described above were stratified into two sub-groups in a second analysis, those with an NPI total score in the top quartile (≧75%), or those more severely impaired at baseline, and those with an NPI total score <75%, or less severe impairment at baseline. Similar to as in Example 1, results were evaluated using the change in SIB (cognitive endpoint), and change in ADCS-ADL (functional endpoint), using the LS mean. The change in the CIBIC-plus (global endpoint) was assessed using the raw mean.
(§7) A sub-population of patients from the five trials, MD-01, MD-02, MD-10, MD-12, and MZ-9605, were concurrently taking antipsychotics.

[2] = system: patients with mild to moderate dementia of the Alzheimer's type on stable chronic doses of a cholinesterase inhibitor; assay: MD-12: randomized, double-blind, placebo-controlled evaluation of memantine added to stable cholinesterase inhibitor; type: in vivo, human; conditions: MD-12, on cholinesterase inhibitor, week 24, ITT LOCF
Protocol: The primary endpoints for MD-12 were ADAS-cog and CIBIC-plus. Other endpoints for MD-12 included ADCS-ADL23, NPI, MMSE and RUD (Resource Utilization in Dementia).
as §1, §2, §3, §4, §5, §6, §7

[3] = humans; cited from earlier work
[4] = NPI total score ≧=75% (top quartile)
[5] = antipsychotics usage “YES” (N = n)
[6] = antipsychotics usage “YES” (N = y)
[7] = baseline NPI agitation score <4
[8] = baseline NPI agitation score ≧=4
[9] = baseline NPI agitation score ≧=4, listed as MEM

CC12CC3CC(C)(C1)CC(N)(C3)C2 [memantine, 1-amino-3,5-dimethyl adamantane]
ADAS-cog (change) LS Mean Diff., MEM v. PLA ([1]; NPI total score <75%): −1.59 | ADAS-cog (change) mean ([1]; NPI total score <75%): −0.08 | ADCS-ADL (change) LS Mean Diff., MEM v. PLA ([1]; NPI total score <75%): 0.11 | ADCS-ADL (change) mean ([1]; NPI total score <75%): −2.67 | CIBIC-PLUS Raw Mean Diff., MEM v. PLA ([1]; NPI total score <75%): −0.32 | CIBIC-PLUS mean ([1]; NPI total score <75%): 4.16 | ADAS-cog (change) LS Mean Diff., MEM v. PLA [1, 4]: −2.53 | ADAS-cog (change) mean [1, 4]: −1.18 | ADCS-ADL (change) LS Mean Diff., MEM v. PLA [1, 4]: 0.70 | ADCS-ADL (change) mean [1, 4]: −5.04 | CIBIC-PLUS Raw Mean Diff., MEM v. PLA [1, 4]: −0.3 | CIBIC-PLUS mean [1, 4]: 4.33 | ADAS-COG (change) LS Mean Diff., MEM v. PLA (second parameter of Table 19) [1, 5]: 0.31 | ADAS-COG (change) mean (second parameter of Table 19) [1, 5]: −2.69 | ADAS-cog (change) LS Mean Diff., MEM v. PLA [1, 5]: −1.93 | ADAS-cog (change) mean [1, 5]: −0.54 | CIBIC-PLUS Raw Mean Diff., MEM v. PLA [1, 5]: −0.29 | CIBIC-PLUS mean [1, 5]: 4.18 | ADAS-COG (change) LS Mean Diff., MEM v. PLA (second parameter of Table 19) [1, 6]: −0.017 | ADAS-COG (change) mean (second parameter of Table 19) [1, 6]: −7.95 | ADAS-cog (change) LS Mean Diff., MEM v. PLA [1, 6]: −0.74 | ADAS-cog (change) mean [1, 6]: 1.42 | CIBIC-PLUS Raw Mean Diff., MEM v. PLA [1, 6]: −0.51 | CIBIC-PLUS mean [1, 6]: 4.40 | ADAS-cog (change) LS Mean Diff., MEM v. PLA [1, 7]: −1.87 | ADAS-cog (change) mean [1, 7]: −0.49 | ADCS-ADL (change) LS Mean Diff., MEM v. PLA [1, 7]: 0.65 | ADCS-ADL (change) mean [1, 7]: −3 | CIBIC-PLUS Raw Mean Diff., MEM v. PLA [1, 7]: −0.36 | CIBIC-PLUS mean [1, 7]: 4.18 | ADAS-cog (change) LS Mean Diff., MEM v. PLA [1, 8]: −1.39 | ADAS-cog (change) mean [1, 8]: 0.86 | ADCS-ADL (change) LS Mean Diff., MEM v. PLA [1, 8]: −2.66 | ADCS-ADL (change) mean [1, 8]: −5.05 | CIBIC-PLUS Raw Mean Diff., MEM v. PLA [1, 8]: no difference | CIBIC-PLUS mean [1, 8]: 4.36 | CIBIC-PLUS Raw Mean Diff., MEM v. PLA [1, 9]: 0.0 | ADAS-cog (change) LS Mean Diff., MEM v. PLA ([1]; overall): −1.90 | ADAS-cog (change) LS mean ([1]; overall): −0.80 | ADCS-ADL (change) LS Mean Diff., MEM v. PLA ([1]; overall): 0.10 | ADCS-ADL (change) LS mean ([1]; overall): −2.90 | CIBIC-PLUS LS mean ([1]; overall): 4.20 | CIBIC-PLUS Raw Mean Diff., MEM v. PLA ([1]; overall): −0.30 | ADAS-COG (change) LS Mean Diff., MEM v. PLA (second parameter of Table 18) [2]: −0.24 | ADAS-cog (change) LS Mean Diff., MEM v. PLA ([2]; NPI total score <75%): −0.39 | ADAS-cog (change) mean ([2]; NPI total score <75%): 0.53 | ADCS-ADL (change) LS Mean Diff., MEM v. PLA ([2]; NPI total score <75%): −0.76 | ADCS-ADL (change) mean ([2]; NPI total score <75%): −3.0 | CIBIC-PLUS Raw Mean Diff., MEM v. PLA ([2]; NPI total score <75%): −0.041 | CIBIC-PLUS mean ([2]; NPI total score <75%): 4.3 | CIBIC-PLUS Raw Mean Diff., MEM v. PLA ([2]; NPI total score <75%, listed as MEM): −0.1 | ADAS-cog (change) LS Mean Diff., MEM v. PLA [2, 4]: −1.53 | ADAS-cog (change) mean [2, 4]: 0.05 | ADCS-ADL (change) LS Mean Diff., MEM v. PLA [2, 4]: 2.0 | ADCS-ADL (change) mean [2, 4]: −2.8 | CIBIC-PLUS Raw Mean Diff., MEM v. PLA [2, 4]: 0.0 | CIBIC-PLUS mean [2, 4]: 4.6 | ADCS-ADL (change) LS Mean Diff., MEM v. PLA ([2]; NPI total score ≧=75% (top quartile), listed as MEM): 2.00 | ADAS-COG (change) mean (second parameter of Table 18) [2, 5]: −2.5 | ADAS-cog (change) LS Mean Diff., MEM v. PLA [2, 5]: −0.74 | ADAS-cog (change) mean [2, 5]: 0.1 | CIBIC-PLUS Raw Mean Diff., MEM v. PLA [2, 5]: −0.06 | CIBIC-PLUS mean [2, 5]: 4.33 | ADAS-COG (change) LS Mean Diff., MEM v. PLA (second parameter of Table 18) [2, 6]: .43 | ADAS-COG (change) mean (second parameter of Table 18) [2, 6]: −6.0 | ADAS-cog (change) LS Mean Diff., MEM v. PLA [2, 6]: .4 | ADAS-cog (change) mean [2, 6]: 3.2 | CIBIC-PLUS Raw Mean Diff., MEM v. PLA [2, 6]: 0.1 | CIBIC-PLUS mean [2, 6]: 4.74 | ADAS-cog (change) LS Mean Diff., MEM v. PLA [2, 7]: −0.72 | ADAS-cog (change) mean [2, 7]: 0.35 | ADCS-ADL (change) LS Mean Diff., MEM v. PLA [2, 7]: −0.56 | ADCS-ADL (change) mean [2, 7]: −2.8 | CIBIC-PLUS Raw Mean Diff., MEM v. PLA [2, 7]: −0.1 | CIBIC-PLUS mean [2, 7]: 4.3 | ADAS-cog (change) LS Mean Diff., MEM v. PLA [2, 8]: −0.27 | ADAS-cog (change) mean [2, 8]: 0.98 | ADCS-ADL (change) LS Mean Diff., MEM v. PLA [2, 8]: 3.54 | ADCS-ADL (change) mean [2, 8]: −3.7 | CIBIC-PLUS Raw Mean Diff., MEM v. PLA [2, 8]: no difference | CIBIC-PLUS mean [2, 8]: 4.7 | CIBIC-PLUS Raw Mean Diff., MEM v. PLA [2, 9]: 0.0 | ADAS-cog (change) LS Mean Diff., MEM v. PLA ([2]; overall): −0.70 | ADAS-cog (change) LS mean ([2]; overall): 0.10 | ADCS-ADL (change) LS Mean Diff., MEM v. PLA ([2]; overall): −0.20 | ADCS-ADL (change) LS mean ([2]; overall): −3.00 | CIBIC-PLUS LS mean ([2]; overall): 4.38 | CIBIC-PLUS Raw Mean Diff., MEM v. PLA ([2]; overall): −0.04 | therapeutically effective circulating concentration [3]: 1 µM
